These results are taken from PubChem BioAssay (NCI).

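48-hour exposure; five concentrations; linearly interpolated endpoints. Definition used: TGI = concentration required for complete inhibition of growth.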

The first assay concerns A498 renal. Briefly: NCI-60 cell line screen, 48 h.
`CC(C)(C)C(=O)C(CC(=O)c1ccccc1)C(=O)C(C)(C)C` had a TGI above 100 µM.

Regarding `CCOC(=O)c1cc(C2(O)CCN(Cc3ccccc3)C2=O)c(-c2cc(C)no2)[nH]1` (stereo not drawn), the TGI was above 100 µM.

In turn, `Clc1nc(Cl)nc(NC23CC4CC(CC(C4)C2)C3)n1` came in with a TGI above 58.3 µM.

In turn, `CCOC(=O)c1cc2c([N+](=O)[O-])c(NC(C)=O)ccc2s1` came in with a TGI above 100 µM.

The compound `Cc1ccc2c(c1C)CC1(Cc3c(ccc4c3CCC4)C1=O)C2=O` (stereo not drawn) gave a TGI above 100 µM.

For the compound `COc1cc2oc(-c3ccc(O)cc3)c(OC3OC(C)C(O)C(O)C3O)c(=O)c2c(O)c1OC` (stereo not drawn), the TGI was above 100 µM.

As to `O=C1CC2C=CC(O)C(C1)C2` (stereo not drawn), the TGI is above 100 µM.

`Cc1c(S(=O)(=O)c2ccccc2)c(N)n(Cc2ccccc2)c1C` registered a TGI above 100 µM.

As for `Cc1ccc(-c2cc(N)n(-c3nc4c([nH]3)c(=O)n(C)c(=O)n4C)n2)cc1`, the TGI came to 21 µM.

The compound `C/C(=N\NC(=S)NC(C)C)c1nc2ncccc2[nH]1` gave a TGI above 100 µM.

Another assay concerns A549 NSCLC. Briefly: NCI-60 cell line screen, 48 h.
`CC(C)(C)C(=O)C(CC(=O)c1ccccc1)C(=O)C(C)(C)C`: the TGI was above 100 µM.

Regarding `CCOC(=O)c1cc(C2(O)CCN(Cc3ccccc3)C2=O)c(-c2cc(C)no2)[nH]1` (stereo not drawn), the TGI was above 100 µM.

As for `Clc1nc(Cl)nc(NC23CC4CC(CC(C4)C2)C3)n1`, the TGI is 38.5 µM.

Compound `CCOC(=O)c1cc2c([N+](=O)[O-])c(NC(C)=O)ccc2s1` came in with a TGI above 100 µM.

Compound `Cc1ccc2c(c1C)CC1(Cc3c(ccc4c3CCC4)C1=O)C2=O` (stereo not drawn) registered a TGI above 100 µM.

As to `COc1cc2oc(-c3ccc(O)cc3)c(OC3OC(C)C(O)C(O)C3O)c(=O)c2c(O)c1OC` (stereo not drawn), the TGI was above 100 µM.

On to `Cc1c(S(=O)(=O)c2ccccc2)c(N)n(Cc2ccccc2)c1C`, for which the TGI is above 100 µM.

`Cc1ccc(-c2cc(N)n(-c3nc4c([nH]3)c(=O)n(C)c(=O)n4C)n2)cc1` gave a TGI above 100 µM.

`C/C(=N\NC(=S)NC(C)C)c1nc2ncccc2[nH]1` had a TGI above 100 µM.

The test system of the next assay is HCC-2998 colon. Briefly: NCI-60 cell line screen, 48 h.
Compound `CC(C)(C)C(=O)C(CC(=O)c1ccccc1)C(=O)C(C)(C)C` had a TGI above 100 µM.

The compound `CCOC(=O)c1cc(C2(O)CCN(Cc3ccccc3)C2=O)c(-c2cc(C)no2)[nH]1` (stereo not drawn) displayed a TGI above 100 µM.

On to `Clc1nc(Cl)nc(NC23CC4CC(CC(C4)C2)C3)n1`, for which the TGI was 41.2 µM.

For the compound `CCOC(=O)c1cc2c([N+](=O)[O-])c(NC(C)=O)ccc2s1`, the TGI was above 100 µM.

`Cc1ccc2c(c1C)CC1(Cc3c(ccc4c3CCC4)C1=O)C2=O` (stereo not drawn) yielded a TGI above 100 µM.

With `COc1cc2oc(-c3ccc(O)cc3)c(OC3OC(C)C(O)C(O)C3O)c(=O)c2c(O)c1OC` (stereo not drawn), the TGI was above 100 µM.

For `O=C1CC2C=CC(O)C(C1)C2` (stereo not drawn), the TGI is above 100 µM.

For `Cc1c(S(=O)(=O)c2ccccc2)c(N)n(Cc2ccccc2)c1C`, the TGI is above 100 µM.

As for `Cc1ccc(-c2cc(N)n(-c3nc4c([nH]3)c(=O)n(C)c(=O)n4C)n2)cc1`, the TGI is above 100 µM.

In the case of `C/C(=N\NC(=S)NC(C)C)c1nc2ncccc2[nH]1`, the TGI is above 100 µM.

A further assay relates to HL-60(TB) leukemia. As to the kind of experiment: NCI-60 cell line screen, 48 h.
`CC(C)(C)C(=O)C(CC(=O)c1ccccc1)C(=O)C(C)(C)C` came in with a TGI above 100 µM.

With `CCOC(=O)c1cc(C2(O)CCN(Cc3ccccc3)C2=O)c(-c2cc(C)no2)[nH]1` (stereo not drawn), the TGI came out at 34.7 µM.

`Clc1nc(Cl)nc(NC23CC4CC(CC(C4)C2)C3)n1` showed a TGI of 16.5 µM.

As for `CCOC(=O)c1cc2c([N+](=O)[O-])c(NC(C)=O)ccc2s1`, the TGI was above 100 µM.

On to `Cc1ccc2c(c1C)CC1(Cc3c(ccc4c3CCC4)C1=O)C2=O` (stereo not drawn), for which the TGI was above 100 µM.

Take `COc1cc2oc(-c3ccc(O)cc3)c(OC3OC(C)C(O)C(O)C3O)c(=O)c2c(O)c1OC` (stereo not drawn): the TGI was above 100 µM.

`O=C1CC2C=CC(O)C(C1)C2` (stereo not drawn) registered a TGI above 100 µM.

As to `Cc1c(S(=O)(=O)c2ccccc2)c(N)n(Cc2ccccc2)c1C`, the TGI is above 100 µM.

Turning to `Cc1ccc(-c2cc(N)n(-c3nc4c([nH]3)c(=O)n(C)c(=O)n4C)n2)cc1`, the TGI is above 100 µM.

Consider `C/C(=N\NC(=S)NC(C)C)c1nc2ncccc2[nH]1`, for which the TGI was above 100 µM.

A further assay relates to MCF7 breast. As to the kind of experiment: NCI-60 cell line screen, 48 h.
For `CC(C)(C)C(=O)C(CC(=O)c1ccccc1)C(=O)C(C)(C)C`, the TGI is above 100 µM.

Compound `CCOC(=O)c1cc(C2(O)CCN(Cc3ccccc3)C2=O)c(-c2cc(C)no2)[nH]1` (stereo not drawn) returned a TGI above 100 µM.

On to `Clc1nc(Cl)nc(NC23CC4CC(CC(C4)C2)C3)n1`, for which the TGI is above 64.3 µM.

`CCOC(=O)c1cc2c([N+](=O)[O-])c(NC(C)=O)ccc2s1` registered a TGI above 100 µM.

With `Cc1ccc2c(c1C)CC1(Cc3c(ccc4c3CCC4)C1=O)C2=O` (stereo not drawn), the TGI is above 100 µM.

With `COc1cc2oc(-c3ccc(O)cc3)c(OC3OC(C)C(O)C(O)C3O)c(=O)c2c(O)c1OC` (stereo not drawn), the TGI is above 100 µM.

`O=C1CC2C=CC(O)C(C1)C2` (stereo not drawn) came in with a TGI above 100 µM.

In turn, `Cc1c(S(=O)(=O)c2ccccc2)c(N)n(Cc2ccccc2)c1C` came in with a TGI above 100 µM.

Compound `Cc1ccc(-c2cc(N)n(-c3nc4c([nH]3)c(=O)n(C)c(=O)n4C)n2)cc1` showed a TGI above 100 µM.

Regarding `C/C(=N\NC(=S)NC(C)C)c1nc2ncccc2[nH]1`, the TGI was above 100 µM.

Another assay concerns MDA-MB-231 breast. As to the kind of experiment: NCI-60 cell line screen, 48 h.
For `CC(C)(C)C(=O)C(CC(=O)c1ccccc1)C(=O)C(C)(C)C`, the TGI was above 100 µM.

For the compound `CCOC(=O)c1cc(C2(O)CCN(Cc3ccccc3)C2=O)c(-c2cc(C)no2)[nH]1` (stereo not drawn), the TGI was above 100 µM.

`Clc1nc(Cl)nc(NC23CC4CC(CC(C4)C2)C3)n1` gave a TGI of 36.7 µM.

As to `CCOC(=O)c1cc2c([N+](=O)[O-])c(NC(C)=O)ccc2s1`, the TGI amounted to 83.9 µM.
